Source: US20230391824A1, “RATIONALE, DESIGN, SYNTHESIS AND VALIDATION OF A SMALL MOLECULE ANTICANCER AGENT” (priority 2021, published 2023)
Blank lines part the entries; values can stand above or below the compound they belong to.

How the values were obtained:
Lin28A protein = target: T1, Lin28A protein (Homo sapiens, UniProt Q9H9Z2); assay: Western blotting of Lin28A protein in cancer cell models; type: cell-based; conditions: YP-MEL, BT-37, NT-2 cells
T1 construct: in a panel of endogenously LIN28 expressing cancer cell models; endogenous in cells; host or cells: T47D, YP-MEL, BT-12, BT-37, NT-2 (NTERA)
T1 sequence (Q9H9Z2 1-209): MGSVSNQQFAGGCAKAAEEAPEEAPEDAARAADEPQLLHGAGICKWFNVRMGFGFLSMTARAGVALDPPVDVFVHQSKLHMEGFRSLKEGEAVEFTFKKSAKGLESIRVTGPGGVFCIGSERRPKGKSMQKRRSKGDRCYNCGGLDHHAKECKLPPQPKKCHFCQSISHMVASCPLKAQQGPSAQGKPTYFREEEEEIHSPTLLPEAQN
Procedure: (§1) FIG. 5: Compound of formula (I) mixture, containing the two isomers (P1+P2) causes significant reduction in Lin28A protein from 5 μM onwards, in a panel of endogenously LIN28 expressing cancer cell models. […] LIN28A and LIN28B expression profile in pediatric CNS cancer cell lines, 96-hr post-treatment with Compound of formula (I). SDS-PAGE on 10% polyacrylamide gel of total cell lysates from untreated cells harvested at 80-90% confluency. Samples loaded with volumes for 20 μg protein. LIN28A and LIN28B proteins were detected using the anti-LIN28A antibody (#8706; Cell Signaling Technology) and anti-LIN28B antibody (#11965; Cell Signalling Technology) at 1:2000 dilutions. T47D: adult breast cancer (LIN28A expressing); YPMEL: malignant melanoma derived from Neurocutaneous Melanosis (NCM) (Lin28A and Lin28B expressing); BT-12: pediatric atypical-teratoid rhabdoid tumor (AT/RT).
FIG. 7A-C: To determine the differences in the biological activity of the two isomers (P1+P2) of Compound of formula (I), we tested the effects of purified and separated P1 and P2 isomers on the protein expression of Lin28A and Lin28B. (A) YP-MEL (NCM). (B) BT-37 (AT/RT). (C) NT-2 (NTERA) (Testicular cancer).
(§2) The proteins were extracted from the same samples as the RNA using the RIPA lysis buffer. The protein extracts (20 μg) were run on 10% SDS-PAGE and transferred on a nitrocellulose blotting membrane 0.22 μm (GE Healthcare) using the Trans-Blot® SD semi-dry transfer devise (Biorad). The proteins were detected using the anti-Lin28A antibody (#8706; Cell Signaling Technology), anti-Lin28B antibody (#11965, Cell Signaling Technology) the anti-beta-actin antibody at respectively 1:2000, 1:2000 and 1:5000 dilutions.

LIN28B protein = target: T2, LIN28B protein (Homo sapiens, UniProt Q6ZN17); assay: Western blotting of Lin28B protein in cancer cell models; type: cell-based; conditions: YP-MEL, BT-37, NT-2 cells; at the tested dosages
T2 construct: in a panel of endogenously LIN28 expressing cancer cell models; endogenous in cells; host or cells: YP-MEL, BT-12, BT-37, NT-2 (NTERA)
T2 sequence (Q6ZN17 1-250): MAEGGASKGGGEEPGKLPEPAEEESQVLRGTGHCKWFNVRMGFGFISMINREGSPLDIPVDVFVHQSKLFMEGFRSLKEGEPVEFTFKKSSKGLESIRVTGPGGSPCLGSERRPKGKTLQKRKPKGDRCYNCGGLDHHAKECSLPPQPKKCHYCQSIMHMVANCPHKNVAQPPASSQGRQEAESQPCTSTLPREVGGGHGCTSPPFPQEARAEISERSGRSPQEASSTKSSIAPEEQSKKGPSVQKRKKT
Procedure: as §1, with “(AT/RT). […]” for “(AT/RT).”
The proteins were extracted from the same samples as the RNA using the RIPA lysis buffer. […] The proteins were detected using the anti-Lin28A antibody (#8706; Cell Signaling Technology), anti-Lin28B antibody (#11965, Cell Signaling Technology) the anti-beta-actin antibody at respectively 1:2000, 1:2000 and 1:5000 dilutions.

Solubility = type: physicochemical; conditions: DMSO, organic solvent or mixture; read-out: solubility in DMSO
[1] = system: NT-2 testicular cancer cells; assay: Flow cytometric (propidium iodide) cell cycle analysis of NT-2 cells; type: cell-based; conditions: 24h, compared with P1
Procedure: FIG. 9: NT-2, testicular cancer cells, were incubated with Compound of formula (I) isomers for 24h and subjected to Flow Cytometric analysis to determine the alterations in cancer cell cycle. […] Therefore, only the P1 isomer of Compound of formula (I) was investigated further to determine its in vitro and in vivo efficacy.
The method for Propidium Iodide (PI) based cell cycle analysis was performed as per the instructions given by the manufacturer (AB139418; Abcam). Briefly NT-2 cells treated with Compound of formula (I) versions were harvested in single cell suspensions with each experimental condition containing two million cells, fixed in 66% Ethanol overnight at 4° C. The ethanol was removed thoroughly by centrifugation, followed by rehydration of cells in PBS with a repeat of centrifugation. Cells were stained in PI (1%) and RNase solution (1%) in PBS for 30 minutes at 37° C. in the dark. The cells were analyzed immediately on the Flow Cytometer.

stem cell tumor spheres = assay: Stem cell tumor spheres, western blotting of stemness and differentiation markers; type: cell-based
Procedure: FIG. 12: Dose-dependent effect of Compound of formula (I) on the stem cell tumor spheres, in the presence of LIF—a pluripotency supplement used for maintenance of stem cell population (Panel A). As determined by western blotting, Compound of formula (I) begins to halt the expression of stemness markers (Nestin, LIN28A, Oct-4) and induces elevation of differentiation markers (GFAP), from 1 μM onwards (Panel B).
as §2

let-7a miRNA = assay: Taqman miRNA qRT-PCR of let-7a; type: cell-based
Procedure: FIG. 11: Compound of formula (I) lead to successful rescue of pre-Iet-7a and their maturation to miRNA let-7a tumor suppressor, only at 1 μM.
Total RNA was extracted using the RNeasy kit (74104, Qiagen). TaqMan® qRT-PCR was performed using standard reagents from Life Technologies (TaqMan® MicroRNA Assay: hsa-let-7a: 000377). The RT was performed using the TaqMan® primers from MicroRNA Assays and the TaqMan® MicroRNA Reverse Transcription Kit (4366596, Life technologies) with 20 ng total RNA. The PCR was performed in a LightCycler 480 instrument with GoTaq® Probe qPCR Master mix (A6102, Promega) according to the manufacturer's protocol. Each reaction was carried out in three technical replicates.

[2] = system: LIN28A-positive cancer cell models; assay: Alamar Blue cell viability, LIN28A-positive versus LIN28B-expressing cancer cell models; type: cell-based; conditions: relative to LIN28B-expressing cancer cell models
Procedure: FIG. 6: Cells were cultured in the presence of the Compound of formula (I) (P1+P2) at increasing concentrations and cell viability was evaluated using Alamar Blue dye and measurement at Excitation of 550 nm and Emission of 590 nm. All the data shown are representative of three replicates. […] LIN28A and LIN28B expression in the presence of Compound of formula (I) correlates with the sensitivity of cells to this inhibitor.
(§3) FIG. 8A-F: Cells were cultured in the presence of the Compound of formula (I) (versions P1, P2 or P1+P2 at equipotent doses) at increasing concentrations and cell viability was evaluated using Alamar Blue dye and measurement at Excitation of 550 nm and Emission of 590 nm. All the data shown are representative of three replicates. […] A. NT-2 cell viability. B. YP-MEL cell viability. C. WI-38 cell viability. D. T47D cell viability. E. BT-12 cell viability. F. summary of Lin28A and Lin28B status.
as §3, with “8A-F.” for “8A-F:”, “F. summary of Lin28A and Lin28B status.” left out

[3] = system: BHQ1-pre-let7a and EGFP-Lin28A bound complexes; assay: FRET assay, displacement of BHQ1-pre-let7a from EGFP-Lin28A; type: binding; conditions: at 100 μM
Procedure: This method was adapted from Roos et al (2016). HEK 293-T cells (ATCC) were cultured as monolayers in DMEM GlutaMAX™-1 (Cat #31966-021, Gibco®, Life Technologies) supplemented with 10% of FBS (fetal bovine serum). Stable EGFP-Lin28A HEK 293-T cells were cultured as monolayers in DMEM supplemented with 10% of FBS (fetal bovine serum) and 0.5 mg/ml Geneticin G418 (10131-035, Life Technologies). Transfections were performed according to the manufacturer's protocol with […] (12252-011, Invitrogen, Life Technologies) for siRNAs and JetPEI (101-10, Polyplus transfections) was used for plasmid DNA. […]
160,000 HEK 293 T cells were seeded per well in 6 well plates and transfected with 320 ng pEGFP-C2-Lin28A plasmid according to the experimental setup with the reagents described above and cells were allowed to recover for 48h. […] The EGFP-lin28A| expressing cells were sorted using Fluorescence Activated Cell Sorting (FACS). Finally, larger colonies of individual clones were analyzed for expression levels of EGFP-Lin28A by performing the FRET assay. […]
FRET system (EGFP-Lin28A and 19B-let7a) treated with DMSO was used as positive control. […] The FRET measurements were obtained from the optimized fluorescence parameter. […] The average signal intensity and background fluorescence were corrected with compound self-fluorescence with and without binding buffer.

- effect on the expression levels of Lin28A (Lin28A protein): no effect
- Lin28B expression (LIN28B protein): remained unaltered
- solubility (Solubility): < 1000 µg/mL
SMILES: CCC(C)C(NC(=O)C(Cc1ncc[nH]1)NC(=O)c1cccc(C(N)=O)c1)C(=O)Nc1ccc(O)c(-c2nc3ccccc3s2)c1 (centres unmarked) [Compound P2]
- triggering of cancer cell death / changes in cancer cell viability [1]: failed to cause any significant changes

SMILES: CC[C@H](C)[C@H](NC(=O)[C@H](Cc1ncc[nH]1)NC(=O)c1cccc(C(N)=O)c1)C(=O)Nc1ccc(O)c(-c2nc3ccccc3s2)c1 [Compound of formula (I)]
- effect on stemness and differentiation markers in the stem cell population (stem cell tumor spheres): dose dependent reduction of sternness markers and elevation of differentiation markers
- concentration from which stemness markers (Nestin, LIN28A, Oct-4) are halted and differentiation markers (GFAP) elevated (stem cell tumor spheres; in the presence of LIF, western blotting): ≥ 1 µM
- concentration giving rescue of pre-let-7a and maturation to miRNA let-7a (let-7a miRNA): 1 µM
- upregulation of let-7a (let-7a miRNA; Lin28B expressing BT-12 cells, relative to RNU6B): only minor upregulation
- expression of let-7a miRNA tumor suppressor (let-7a miRNA; YP-MEL, T47D, A549 cells, relative to RNU6B): increase in the expression
- sensitivity of LIN28A-positive cancer cell models [2]: heightened sensitivity

- FRET reduction compared with 70% by Compound of formula (I) [3]: equivalent FRET reduction
SMILES: CC(=O)N(C)c1cccc(-c2ccc3nnc(C)n3n2)c1 [c1632, reference compound]
